Assays:
[1] = system: pMSCV-F-del Casp9-IRES-GFP transfected HEK293 cells (iCasp9); assay: Caspase 3/7 Assay after AP1903 stimulation of iCasp9-transfected cells; type: cell-based, human; conditions: compared to ethanol stimulated cells, 0, 0.1, 1, 10 nmol/l tested, 24 h end point
From the text: Because repopulated rat livers with human iPS-Heps can be reconstituted with both rodent cells and human cells, systems to maximize the human component to 100% of the livers and to purify human cells after perfusion/isolation of livers are beneficial. Suicide systems can be designed to potentiate these processes by efficiently inducing apoptosis in transduce cells. An inducible caspase-9 (iCasp9), encoded by a suicide gene engineered from human caspase-9, was incorporated. […]
HEK293 cells are transfected with pMSCV-F-del-Casp9_IRES-GFP (Addgene). • To assess transfection efficiency, cells are co-transfected with a TagRFP control plasmid ( 1/10 of total amount of DNA). • On day 3 transfected cells and negative control are monitored, counted and seeded (1E04 cells/96-well) for Caspase 3/7 Assay (Promega; G8091) Per Transfection/Negative Control cells were seeded as follows: • Per concentration small molecule (chemical inducer of dimerization) AP1903 (ApexBio) two wells, the same amount for negative control. […] T=0 h was measured immediately and T=24 h is measured as end point. (FIG. 13) • iCasp9-IRES-GFP construct is cloned with the rat albumin promoter pEAlb123. • iCasp9 expression (mRNA) is quantified in H4-II-E-C3 by qRT-PCR. […]

[2] = system: Untransfected HEK293 cells; assay: Caspase 3/7 Assay after AP1903 stimulation of untransfected control cells; type: cell-based, human; conditions: untransfected HEK293 cells treated with AP1903
Description: HEK293 cells are transfected with pMSCV-F-del-Casp9_IRES-GFP (Addgene). • To assess transfection efficiency, cells are co-transfected with a TagRFP control plasmid ( 1/10 of total amount of DNA). • On day 3 transfected cells and negative control are monitored, counted and seeded (1E04 cells/96-well) for Caspase 3/7 Assay (Promega; G8091) Per Transfection/Negative Control cells were seeded as follows: • Per concentration small molecule (chemical inducer of dimerization) AP1903 (ApexBio) two wells, the same amount for negative control. For shuttle control, also wells per concentration are seeded. • On day 4, stimulation with AP1903 starts (0; 0,1; 1; 10 nmol/1). Shuttle control includes cells treated with ethanol only. T=0 h was measured immediately and T=24 h is measured as end point. (FIG. 13) • iCasp9-IRES-GFP construct is cloned with the rat albumin promoter pEAlb123. • iCasp9 expression (mRNA) is quantified in H4-II-E-C3 by qRT-PCR. Cells are transfected with plasmids pEAlb123-iCasp9-IRES-GFP and pcDNA3-CMV-eGFP (positive control). • Cells are harvested and RNA is isolated. iCASP9 and eGFP-specific PCR primers are used to measure expression (FIG. 14).

CC[C@@H](C(=O)N1CCCC[C@H]1C(=O)O[C@@H](CCc1ccc(OC)c(OC)c1)c1cccc(OCC(=O)NCCNC(=O)COc2cccc([C@@H](CCc3ccc(OC)c(OC)c3)OC(=O)[C@@H]3CCCCN3C(=O)[C@H](CC)c3cc(OC)c(OC)c(OC)c3)c2)c1)c1cc(OC)c(OC)c(OC)c1 [AP1903]
AP1903 concentration giving maximum effect in Caspase 3/7 Assay [1]: 1 nmol/L
effect of AP1903 in Caspase 3/7 Assay [2]: did not show any effect

Source: patent US11530388B2, “Methods of engineering human induced pluripotent stem cells to produce liver tissue” (University of Pittsburgh—Of the Commonwealth System of …, priority 2017, dated 2022)
